Results published in ChEMBL document CHEMBL4342421, “Current scenario of tetrazole hybrids for antibacterial activity” (Eur J Med Chem, 2019).
≈ marks a conversion by molar mass, not a printed value.

Tests used:
[1] = system: Escherichia coli; experiment: Antimicrobial activity against Escherichia coli ATCC 25922 after 24 hrs by disc diffusion method; assay type: functional; conditions: ATCC 25922, 24 h
[2] = system: Aspergillus flavus; experiment: Antifungal activity against Aspergillus flavus NCIM 524 after 3 to 4 days; assay type: functional
[3] = system: Aspergillus fumigatus; experiment: Antifungal activity against Aspergillus fumigatus NCIM 902 after 3 to 4 days; assay type: functional
[4] = system: Trichophyton mentagrophytes; experiment: Antifungal activity against Trichophyton mentagrophytes after 3 to 4 days; assay type: functional
[5] = system: Pseudomonas aeruginosa; experiment: Antimicrobial activity against Pseudomonas aeruginosa ATCC 27853 after 24 hrs by disc diffusion method; assay type: functional; conditions: ATCC 27853, 24 h
[6] = system: Staphylococcus aureus; experiment: Antimicrobial activity against Staphylococcus aureus ATCC 25923 after 24 hrs by disc diffusion method; assay type: functional; conditions: ATCC 25923, 24 h
[7] = system: Talaromyces marneffei; experiment: Antifungal activity against Penicillium marneffei after 3 to 4 days; assay type: functional
[8] = system: Klebsiella pneumoniae; experiment: Antimicrobial activity against Klebsiella pneumoniae after 24 hrs by disc diffusion method; assay type: functional
[9] = system: Candida albicans; experiment: Antifungal activity against Candida albicans; assay type: functional
[10] = system: Candida albicans; experiment: Antifungal activity against Candida albicans ATCC 76615 after 24 hrs; assay type: functional; conditions: ATCC 76615, 24 h
[11] = system: Escherichia coli; experiment: Antimicrobial activity against Escherichia coli; assay type: functional
[12] = system: Aspergillus flavus; experiment: Antifungal activity against Aspergillus flavus after 24 hrs; assay type: functional
[13] = system: Aspergillus niger; experiment: Antifungal activity against Aspergillus niger; assay type: functional
[14] = system: Bacillus subtilis; experiment: Antibacterial activity against Bacillus subtilis ATCC 21216 after 24 hrs by two-fold broth serial dilution method; assay type: functional; conditions: ATCC 21216, 24 h
[15] = system: Pseudomonas aeruginosa; experiment: Antimicrobial activity against Pseudomonas aeruginosa ATCC 27853 after 24 hrs by two-fold broth serial dilution method; assay type: functional; conditions: ATCC 27853, 24 h
[16] = system: Staphylococcus aureus; experiment: Antimicrobial activity against Staphylococcus aureus; assay type: functional
[17] = system: Pichia norvegensis; experiment: Antifungal activity against Candida mycoderma after 24 hrs; assay type: functional
[18] = system: Cyberlindnera jadinii; experiment: Antifungal activity against Candida utilis after 24 hrs; assay type: functional; conditions: Williopsis jadinii
[19] = system: Micrococcus luteus; experiment: Antibacterial activity against Micrococcus luteus ATCC 4698 after 24 hrs by two-fold broth serial dilution method; assay type: functional; conditions: ATCC 4698, 24 h
[20] = system: Saccharomyces cerevisiae; experiment: Antifungal activity against Saccharomyces cerevisiae after 24 hrs; assay type: functional
[21] = system: Escherichia coli; experiment: Antimicrobial activity against Escherichia coli JM 109 after 24 hrs by two-fold broth serial dilution method; assay type: functional; conditions: JM 109, 24 h
[22] = system: Shigella dysenteriae; experiment: Antimicrobial activity against Shigella dysenteriae after 24 hrs by two-fold broth serial dilution method; assay type: functional
[23] = system: Pseudomonas aeruginosa; experiment: Antimicrobial activity against Pseudomonas aeruginosa; assay type: functional
[24] = system: Staphylococcus aureus; experiment: Antibacterial activity against methicillin resistant Staphylococcus aureus N315 after 24 hrs by two-fold broth serial dilution method; assay type: functional; conditions: N315, 24 h
[25] = system: Escherichia coli; experiment: Antimicrobial activity against Escherichia coli assessed as zone of inhibition at 5 mg/ml; assay type: functional; conditions: read-out: IZ
[26] = system: Klebsiella pneumoniae; experiment: Antimicrobial activity against Klebsiella pneumoniae assessed as zone of inhibition at 5 mg/ml; assay type: functional; conditions: read-out: IZ
[27] = system: Staphylococcus aureus; experiment: Antimicrobial activity against Staphylococcus aureus assessed as zone of inhibition at 5 mg/ml; assay type: functional; conditions: read-out: IZ
[28] = system: Pseudomonas aeruginosa; experiment: Antimicrobial activity against Pseudomonas aeruginosa assessed as zone of inhibition at 5 mg/ml; assay type: functional; conditions: read-out: IZ
[29] = system: Fusarium oxysporum; experiment: Antifungal activity against Fusarium oxysporum; assay type: functional
[30] = system: Aspergillus flavus; experiment: Antifungal activity against Aspergillus flavus; assay type: functional
[31] = system: Lactococcus lactis; experiment: Antimicrobial activity against Streptococcus lactis assessed as zone of inhibition at 10 ug/ml; assay type: functional; conditions: read-out: IZ
[32] = system: Streptomyces; experiment: Antimicrobial activity against Streptomyces assessed as zone of inhibition at 10 ug/ml; assay type: functional; conditions: read-out: IZ
[33] = system: Aspergillus niger; experiment: Antifungal activity against Aspergillus niger assessed as zone of inhibition at 10 ug/ml; assay type: functional; conditions: read-out: IZ
[34] = system: Penicillium; experiment: Antifungal activity against Penicillium assessed as zone of inhibition at 10 ug/ml; assay type: functional; conditions: read-out: IZ
[35] = system: Pseudomonas; experiment: Antimicrobial activity against Pseudomonas assessed as zone of inhibition at 10 ug/ml; assay type: functional; conditions: read-out: IZ
[36] = system: Candida albicans; experiment: Antifungal activity against Candida albicans assessed as zone of inhibition at 10 ug/ml; assay type: functional; conditions: read-out: IZ
[37] = system: Escherichia coli; experiment: Antimicrobial activity against Escherichia coli assessed as zone of inhibition at 10 ug/ml; assay type: functional; conditions: read-out: IZ
[38] = system: Bacillus subtilis; experiment: Antimicrobial activity against Bacillus subtilis assessed as zone of inhibition at 10 ug/ml; assay type: functional; conditions: read-out: IZ
[39] = Antifungal activity against Rhodotorula ingeniosa assessed as zone of inhibition at 10 ug/ml; assay type: functional; conditions: Sampaiozyma ingeniosa; read-out: IZ
[40] = system: Prescottella equi; experiment: Antimicrobial activity against Rhodococcus equi; assay type: functional; conditions: Rhodococcus (subgen. Prescottella) equi
[41] = system: Proteus mirabilis; experiment: Antimicrobial activity against Proteus mirabilis; assay type: functional
[42] = system: Proteus vulgaris; experiment: Antimicrobial activity against Proteus vulgaris; assay type: functional
[43] = system: Bacillus thuringiensis; experiment: Antimicrobial activity against Bacillus thuringiensis; assay type: functional
[44] = system: Bacillus subtilis; experiment: Antimicrobial activity against Bacillus subtilis; assay type: functional
[45] = system: Streptococcus pneumoniae; experiment: Antimicrobial activity against Streptococcus pneumoniae; assay type: functional
[46] = system: Salmonella typhimurium; experiment: Antimicrobial activity against Salmonella typhimurium; assay type: functional, Salmonella enterica subsp. enterica serovar Typhimurium; conditions: Salmonella enterica

## c1ccc(-n2nnnc2SCCCSc2nnnn2C2CC2)cc1
[1]
  MIC: 6.25 to 50 µg/mL (≈ 17.3 to 139 µM)
[2]
  MIC: 6.25 to 50 µg/mL (≈ 17.3 to 139 µM)
[3]
  MIC: 6.25 to 50 µg/mL (≈ 17.3 to 139 µM)
[4]
  MIC: 6.25 to 50 µg/mL (≈ 17.3 to 139 µM)
[5]
  MIC: 6.25 to 50 µg/mL (≈ 17.3 to 139 µM)
[6]
  MIC: 6.25 to 50 µg/mL (≈ 17.3 to 139 µM)
[7]
  MIC: 6.25 to 50 µg/mL (≈ 17.3 to 139 µM)
[8]
  MIC: 6.25 to 50 µg/mL (≈ 17.3 to 139 µM)

## OC(Cn1cncn1)(Cn1cncn1)c1ccc(F)cc1F [FLUCONAZOLE]
[9]
  MIC: 25 µg/mL (≈ 81.6 µM)
[10]
  MIC: 1 to 256 µg/mL (≈ 3.27 to 836 µM)
[11]
  MIC: 25 µg/mL (≈ 81.6 µM)
[12]
  MIC: 1 to 256 µg/mL (≈ 3.27 to 836 µM)
[13]
  MIC: 25 µg/mL (≈ 81.6 µM)
[14]
  MIC: 1 to 256 µg/mL (≈ 3.27 to 836 µM)
[15]
  MIC: 1 to 256 µg/mL (≈ 3.27 to 836 µM)
[16]
  MIC: 25 µg/mL (≈ 81.6 µM)
[17]
  MIC: 1 to 256 µg/mL (≈ 3.27 to 836 µM)
[18]
  MIC: 1 to 256 µg/mL (≈ 3.27 to 836 µM)
[19]
  MIC: 1 to 256 µg/mL (≈ 3.27 to 836 µM)
[20]
  MIC: 1 to 256 µg/mL (≈ 3.27 to 836 µM)
[21]
  MIC: 1 to 256 µg/mL (≈ 3.27 to 836 µM)
[22]
  MIC: 1 to 256 µg/mL (≈ 3.27 to 836 µM)
[23]
  MIC: 25 µg/mL (≈ 81.6 µM)
[24]
  MIC: 1 to 256 µg/mL (≈ 3.27 to 836 µM)

## CCn1cc(C(=O)O)c(=O)c2cc(F)c(N3CCN(C)CC3)cc21 [PEFLOXACIN]
[25]
  zone of inhibition at 5000 µg/mL: 28 to 36 mm
[26]
  zone of inhibition at 5000 µg/mL: 28 to 36 mm
[27]
  zone of inhibition at 5000 µg/mL: 28 to 36 mm
[28]
  zone of inhibition at 5000 µg/mL: 28 to 36 mm

## Clc1ccccc1C(c1ccccc1)(c1ccccc1)n1ccnc1 [CLOTRIMAZOLE]
[13]
  MIC: 100 µg/mL (≈ 290 µM)
[29]
  MIC: 100 µg/mL (≈ 290 µM)
[30]
  MIC: 100 µg/mL (≈ 290 µM)

## CC(=O)OC[C@H]1O[C@H](n2nnnc2Cn2nnc3ccccc32)[C@H](OC(C)=O)[C@@H](OC(C)=O)[C@@H]1OC(C)=O
[31]
  zone of inhibition at 10 µg/mL: 15 to 17 mm
[32]
  zone of inhibition at 10 µg/mL: 15 to 17 mm
[33]
  zone of inhibition at 10 µg/mL: 15 to 17 mm
[34]
  zone of inhibition at 10 µg/mL: 15 to 17 mm
[35]
  zone of inhibition at 10 µg/mL: 15 to 17 mm
[36]
  zone of inhibition at 10 µg/mL: 15 to 17 mm
[37]
  zone of inhibition at 10 µg/mL: 15 to 17 mm
[38]
  zone of inhibition at 10 µg/mL: 15 to 17 mm
[39]
  zone of inhibition at 10 µg/mL: 15 to 17 mm

## c1ccc(N2CCN(c3ncnc4c3Sc3nnnn3N4)CC2)cc1
[40]
  MIC: 51 to 410 µg/mL (≈ 144 to 1160 µM)
[41]
  MIC: 51 to 410 µg/mL (≈ 144 to 1160 µM)
[42]
  MIC: 51 to 410 µg/mL (≈ 144 to 1160 µM)
[43]
  MIC: 51 to 410 µg/mL (≈ 144 to 1160 µM)
[44]
  MIC: 51 to 410 µg/mL (≈ 144 to 1160 µM)
[45]
  MIC: 51 to 410 µg/mL (≈ 144 to 1160 µM)
[46]
  MIC: 51 to 410 µg/mL (≈ 144 to 1160 µM)
